Assay [1] relates to explants from the stomach tissue of a pale-skinned person. Kind of assay: Ex-vivo study: chromametric colour measurement (L, a, b) of skin explants. Details: species or system human; key to a / b: CIE L*a*b* colour coordinates (Minolta CR-300, D65). The conditions noted are these: for L / a / b: n=3, listed as P2. The method, then: 12 explants from the stomach tissue of a pale-skinned person (type) having an average diameter of 10 mm are prepared (reference: […]-AB49). The explants are kept in a BEM medium (BIO-EC's explants medium) at 37° C. in a moist atmosphere comprising 5% of CO2. The following samples are tested: (in each case 3 explants), where the solutions of the corresponding substances used comprise 90% of water and 10% of ethanol. […] 2 μl of the respective sample are added to the explants and distributed for the first time (DO), 1 day later (D1), 2 days later (D2), 3 days later (D3) and 4 days later (D4). The colour of the explants is determined chromametrically. The measurements are carried out on addition (DO), on day 1 (D1), on day 5 (D5) and on day 11 (D11). The colour measurements are carried out using a Minolta CR-300 Chroma-meter, and the L, a and b values are read off correspondingly on the instrument. […] A colour area is present here which is viewed at a viewing angle of 2 degrees. This viewing angle is used as standard in the chromametric measurement. • Irradiation source D65, corresponding to daylight • Region of the measurement: 3 mm • Parameters used: L* a* b* The sample is placed on the bearing rail with the epidermis facing downwards. The irradiation is carried out from the underside through the area indicated (3 mm). In the colorimetric determinations <L a b>, the L value determines the contrast of the skin. If the L value drops, the skin appears darker.

In assay [2] the test system is B16V mouse melanoma cells. Kind of assay: B16 V mouse melanoma cell test: melanin concentration after alpha-MSH stimulation. The format is cell-based. Particulars: for Relative melanin concentration (%): DMSO (0.1%) + α-MSH 10^-8 M, relative to blank DMSO + α-MSH = 100%. As to the method:
Description of the performance of the B16 V mouse melanoma cell test:
B16V mouse melanoma cells (manufacturer: DSMZ; Article No.: ACC370) in RPMI medium (Invitrogen, Article No.: 31870), to which 10% of FBS (foetal bovine serum, Invitrogen, Article No: 10499044), 2 mM L-glutamine (Invitrogen, Article No: 25030) and 1 mM sodium pyruvate (Invitrogen, Article No: 11360) had additionally been added (modified RPMI medium), are transferred into a culture bottle and incubated at 37° C. and 5% CO2 for 72 h. The medium is separated off, and the cells are washed with 10 ml of D-PBS (Invitrogen, Article No. 14190) and subsequently filtered off with suction. 1 ml of HyQtase cell detachment solution (Hyclone, Article No. SV30030.01) is added to the cells. The bottle is swirled a number of times, and the HyQtase cell detachment solution is subsequently removed by suction. The cells are then incubated in the incubator at 37° C. and 5% CO2for 5 min. The cells are taken up in the modified RPMI medium (Invitrogen, Article No.: 31870), and the cell count is determined. To this end, the cells are stained with Tryptan Blue and counted in a Neubauer chamber. The cells are subsequently sown out again in the modified RPMI medium in a defined cell count of 80,000 cells per well (6-well clear plate, TCT, PS (Nunc)).
The plate is subsequently incubated at 37° C. and 5% CO2 for 24 h, the medium is then removed. 1980 μl of the isomaltulose dilution are subsequently added. For this substance dilution, the isomaltulose is dissolved in DMSO and subsequently filtered through a sterile filter (0.2 μm, Millipore, Article No. SLLG013SL). The solution is then diluted with the modified RPMI medium (in this case the FBS content in the RPMI medium is only 5%) in such a way that the isomaltulose concentration is 1 mM or 5 mM. 20 μl of an alpha-MSH solution in DMSO (alpha-melanocyte-stimulating hormone=alpha-MSH) (DMSO, Sigma, Article No.:D2650) are then added, so that the alpha-MSH concentration in the well is 10^−8 M. The plate is subsequently incubated again at 37° C. and 5% CO2 for 24 h. […]
After the final incubation period, the medium is removed by suction, and the cells are washed with 1000 μl of D-PBS (Invitrogen, Article No. 14190). […] The cell count is subsequently determined. To this end, the cells are stained with Tryptan Blue and counted in a Neubauer chamber. […] 200 μl are then pipetted as quadruple determination (per cup) into a 96-well plate (VWR, Article No. 4100636981), and the absorption at a wavelength of 405 nm is determined. […] The content of melanin can be determined in this way by means of a calibration line.
The other values were determined relative to the blank sample with dimethyl sulfoxide (DMSO) and α-MSH, whose measurement was set at 100%

Setting [3] is: D0 (on addition), single explant values.
The mark [4] stands for this setting: D1, 2 μl sample applied D0-D4, single explant values.
[5] abbreviates: D5, 2 μl sample applied D0-D4, single explant values.
[6] abbreviates: D11, 2 μl sample applied D0-D4, single explant values.
Setting [7] is: in comparison with the untreated sample.

Consider 2 molecules from patent US20130108565A1, “TANNING ENHANCERS AND SELF-TANNING SUBSTANCES” (MERCK PATENT GESELLSCHAFT MIT BESCHRANKTER HAFTUNG, priority 2010, published 2013).

Several values for one entry are separate records, joined by “and”; a condition that tells them apart may be missing. Equal values may be shown once.

With `OC[C@H]1O[C@H](OC[C@H]2OC(O)(CO)[C@@H](O)[C@@H]2O)[C@H](O)[C@@H](O)[C@@H]1O` (stereo partly drawn) [isomaltulose, α-D-glucopyranose-(1→6)-D-fructose (open, α- or (β-form) (isomaltulose)], the L is 62.89 and 62.96 and 61.62 in assay [1] (setting [3]); 63.09 and 64.04 and 62.97 in assay [1] (setting [4]); 63.79 and 62.89 and 63.61 in assay [1] (setting [5]); 65.69 and 59.72 and 60.71 in assay [1] (setting [6]). Further, the a is 2.75 and 2.19 and 3.28 in assay [1] (setting [3]); 3.72 and 2.1 and 3.32 in assay [1] (setting [4]); 2.57 and 2.67 and 3.26 in assay [1] (setting [5]); 2.41 and 3.44 and 3.59 in assay [1] (setting [6]). Moreover, the b in assay [1] (setting [3]) is 15.88 and 18.71 and 18.43; in assay [1] (setting [4]), 16.05 and 17.73 and 17.92; in assay [1] (setting [5]) it was 14.33 and 17.15 and 16.3; in assay [1] (setting [6]), 12.35 and 11.35 and 11.57. In assay [1] (setting [7]), the “skin darkness (L values)” value was “darkening of the skin”. Also, the “skin shade, red-brown shift (a value)” value in assay [1] (setting [7]) is given as “more natural skin shade”. The entries for the “Relative melanin concentration (%)” value in assay [2] (1 mM) and in assay [2] (5 mM) were 65.0% and 58.1%, respectively. For the same molecule, the melanin production entry in assay [2] (cell culture tests with B16V mouse melanoma cells) is “reduces melanin production”.

On to `O=c1cc(CO)occ1O` [kojic acid, reference compound], for which, in assay [2] (1 mM), the “Relative melanin concentration (%)” value amounted to 71.4%.
